{"source": "patent US20200360471A1", "about": "“METHODS OF TREATING AND PREVENTING VIRAL INFECTIONS” (priority 2017, published 2020)", "key": {"[1]": {"tested_on": "external anogenital warts", "format": "in vivo, human", "experimental": "A randomized, double-blind, placebo-controlled study to assess the pharmacodynamics, safety/tolerability and efficacy of omiganan in patients with external anogenital warts was conducted. 24 patients aged 18 years or older with clinically diagnosed external anogenital warts were enrolled. […] The gel was applied topically once daily for 12 weeks. The treatment period was from day 0 till day 84. During the treatment period subjects visited the clinical unit on days 0, 14, 28, 56 and 84. A fixed dose of omiganan or placebo was applied once daily. Two follow up visits were scheduled on days 126 and 168. During study execution, vital signs were measured on days 0, 14, 28, 56 and 84. Pharmacodynamic assessments were performed on day 0 (pre-dose), 14, 28, 56 and 84, respectively. Punch biopsies were performed at the screening and on days 56 and 168. Subjects were dosed 84 consecutive days with approximately 24 hours between each treatment. Omiganan or placebo (vehicle) was administered to the subjects. […] Subjects were instructed to apply a fingertip unit of gel (approximately […]). Omiganan is prepared as a lyophilized powder of the pentahydrochloride salt. The molecular formula is C90H127N27O12. HCl*H2O. […] Any other therapy for external anogenital warts (topical treatment, laser therapy, cryotherapy, photodynamic therapy and surgical excision) was not allowed from 28 days prior to the first study drug administration, during the study and until the 3 month follow up assessment was completed. Wart count and wart clearance. The warts were counted at every study visit. FIGS. 18A and 18B show the change in value of the count of the target warts over time per treatment. […] Wart clearance was derived from the count of all warts present at baseline. In FIG. 19, the proportion of baseline lesions cleared is shown. […] Wart size. Wart size was measured during every visit. The change in mean of the long and short diameter, height and volume measured is presented in FIG. 21 along with the p-values."}, "TC-1 tumor": {"tested_on": "TC-1 tumor", "experiment": "Tumor outgrowth in TC-1 mice in presence or absence of anti-neutrophil antibody aLy6G", "format": "in vivo", "experimental": "10, 12, and 14. Tumor growth was measured at days 11, 13, 15, 17, 20, and 22."}, "HPVS PsV": {"tested_on": "HPVS PsV", "details": "read-out: IC50, inhibition of uptake of HPVS PsV; PsV 1:6000 dilution, 293TT cells", "experimental": "Pseudovirus (PsV) of HPVS was prepared using method described by Buck et al, (Journal of Virology, January 2004; 751-757) and used as a model HPV in this study. The PsV stocks were prepared by co-transfecting human 293TT cells with HPVS viral plasmid p5Shell containing codon-modified papillomavirus capsid genes for L1 and L2 proteins, and pcLucF reporter plasmid containing the luciferase gene for detecting viral infection. The cell lysates containing the capsidized virus was used as the PsV stock. Optimal PsV dilution factor was determined based on the luciferase activity in 293TT cells infected with serially diluted HPVS PsV.\nData were collected on a Molecular Devices Flexstation 3 Microplate Reader using Softmax Pro v5.4.4. Data analysis was performed on Prism software using four parameter logistic model. […] Furin Inhibitor I was used as a positive control for HPVS PsV inhibition since it blocks the viral entry into host cells.\nTwo runs were performed for each dilution level."}, "IL-1β, IL-8": {"tested_on": "IL-1β, IL-8", "experiment": "Biomarkers (qPCR) in wart biopsies", "format": "in vivo, human", "details": "during the study period", "experimental": "The treatment period was from day 0 till day 84. During the treatment period subjects visited the clinical unit on days 0, 14, 28, 56 and 84. A fixed dose of omiganan or placebo was applied once daily. Two follow up visits were scheduled on days 126 and 168. During study execution, vital signs were measured on days 0, 14, 28, 56 and 84. Pharmacodynamic assessments were performed on day 0 (pre-dose), 14, 28, 56 and 84, respectively. Punch biopsies were performed at the screening and on days 56 and 168. Subjects were dosed 84 consecutive days with approximately 24 hours between each treatment.\nBiomarkers in biopsy. Biopsies were taken from biopsy wart 1 at screening, biopsy wart 2 at EOT and target wart at EOS. Biopsies were only taken when the warts were still visible."}, "[2]": {"tested_on": "imiquimod-induced inflammatory responses of the skin", "experiment": "Topical omiganan and imiquimod in skin of healthy subjects", "format": "in vivo, human", "experimental": "Sixteen (16) healthy subjects participated in the study. Pharmacodynamic effects were assessed on Day 1, 2, 3, 4, 5 and 14 (EOS) by clinical assessment of the lesion on-site with visual erythema grading by a blinded investigator, erythema by colorimetry, erythema by multispectral imaging, erythema by 2D photography analysis, perfusion by laser speckle contrast imaging (LSCI), skin surface biomarkers by transdermal analysis patch (TAP) and local biopsies biomarkers. […] 3 mm skin punch biopsies were collected at day 5 for qPCR mRNA expression, histology and immunohistochemistry. Enhanced inflammation and immune system activation was observed when OMN was applied to 48 hours IMQ primed skin. This was most pronounced for markers IFNγ, IL-10, IL-6, MX1 and MXA (FIGS. 39-43, respectively) indicating an increased anti-viral response. Further, this activity is correlated with cellular infiltrates of CD4+, CD8+ and CD14+ cells (FIGS. 44-47)."}, "[3]": {"details": "omiganan applied after imiquimod application"}}, "note": "Where two headings read alike, the source gives them in different places. Peptide text beside a SMILES is read from it."}
{"smiles": "CC[C@H](C)[C@H](N)C(=O)N[C@@H](CC(C)C)C(=O)N[C@@H](CCCNC(=N)N)C(=O)N[C@@H](Cc1c[nH]c2ccccc12)C(=O)N1CCC[C@H]1C(=O)N[C@@H](Cc1c[nH]c2ccccc12)C(=O)N[C@@H](Cc1c[nH]c2ccccc12)C(=O)N1CCC[C@H]1C(=O)N[C@@H](Cc1c[nH]c2ccccc12)C(=O)N[C@@H](CCCNC(=N)N)C(=O)N[C@@H](CCCNC(=N)N)C(=O)N[C@@H](CCCCN)C(N)=O", "note": "[omiganan, I L R W P W W P W R R K] (H-ILRWPWWPWRRK-NH2)", "values": [{"measurement": "proportion of all lesions cleared (printed: mean of baseline warts cleared)", "setting": "[1]; EOS, p-value=0.2891 vs vehicle", "result": 23.82, "unit": "%"}, {"measurement": "mean of baseline warts cleared", "setting": "[1]; EOS, p-value=0.3918 vs vehicle", "result": 29.3, "unit": "%"}, {"measurement": "mean of all warts cleared", "setting": "[1]; EOT, p-value=0.1879 vs vehicle", "result": 11.4, "unit": "%"}, {"measurement": "mean of baseline warts cleared", "setting": "[1]; EOT, p-value=0.2500 vs vehicle", "result": 15.5, "unit": "%"}, {"measurement": "mean volume of the target warts compared to vehicle", "setting": "[1]; at EOT visit, p-value=0.0367", "result": "significantly lower"}, {"measurement": "volume of the warts compared to vehicle", "setting": "[1]; entire study period (pre-dose till EOS), p=0.0655", "result": "trend to reduction"}, {"measurement": "adverse events", "setting": "[1]; human, in vivo", "result": "few adverse events"}, {"measurement": "safety of administration to patients with external anogenital warts", "setting": "[1]; human, in vivo", "result": "safe"}, {"measurement": "height of the warts compared to vehicle", "setting": "[1]; p=0.0543", "result": "clear trend in decrease"}, {"measurement": "wart count", "setting": "[1]; summary of study", "result": "trend in reduction"}, {"measurement": "photography assessment of anogenital warts", "setting": "[1]; two subjects treated with omiganan", "result": "visible wart size reduction or even clearance"}, {"measurement": "tumor outgrowth compared to PBS-treated mice", "setting": "TC-1 tumor; intratumoral on days 9, 11, 14, 16, 18, without aLy6G", "result": "reduction in tumor outgrowth"}, {"measurement": "reduction in tumor outgrowth", "setting": "TC-1 tumor; omiganan treated group also treated with aLy6G", "result": "not observed"}, {"measurement": "IC50", "setting": "HPVS PsV", "result": "23.5 to 29.1", "unit": "µM"}, {"measurement": "amount of IL-1β in biopsies", "setting": "IL-1β, IL-8", "result": "increased"}, {"measurement": "amount of IL-8 in biopsies", "setting": "IL-1β, IL-8", "result": "increased"}, {"measurement": "relation of this activity to cellular infiltrates of CD4+, CD8+ and CD14+ cells", "setting": "[2]; applied to 48 hours IMQ primed skin, biopsies day 5", "result": "correlated"}, {"measurement": "inflammation and immune system activation (most pronounced for IFNγ, IL-10, IL-6, MX1, MXA)", "setting": "[2]; applied to 48 hours IMQ primed skin, biopsies day 5, qPCR", "result": "Enhanced"}, {"measurement": "basal blood flow", "setting": "[2]; [3]", "result": "enhanced the activity of imiquimod"}, {"measurement": "erythema", "setting": "[2]; [3]", "result": "enhanced the activity of imiquimod"}]}
